Measurements reported in patent US10821123B2, “Use of ribose for treatment of subjects having congestive heart failure” (priority 2016, dated 2020).

Legend:
[1] = tested on: mice with chronic pressure overload (ascending aortic constriction); test: Mouse model of chronic pressure overload (ascending aortic constriction), myocardial remodeling; format: in vivo
Source text: This remodeling effect was manifested by lower left ventricular dimensions, lower ventricular wall thicknesses, and greater fractional shortening values compared to untreated controls. […] The study consisted of two ribose treated groups (high and low dose) with the high dose treated group responding better than the low dose group compared to untreated controls. The high dose provided D-ribose exposures that were 4-fold greater than observed in the low dose group providing evidence of a dose effect. The once daily, subcutaneous administration of D-ribose was intended to mimic once daily oral dosing in humans. […] Mice were subjected to ascending aortic constriction (AAC) leading to LV hypertrophy followed by severe LV systolic dysfunction and associated heart failure. In this situation, mitochondrial ATP synthesis is reduced and ROS production is increased in association with advancing heart failure. Reduced ATP levels can contribute to progressive loss of cardiac function from increasing energy deficit. Increased ROS can result in oxidation of critical enzymes and a diminished reducing environment, leading to apoptosis and fibrosis, which are aspects of cardiac remodeling. Mice were divided into four groups; Sham controls (same thoracic surgery with no constriction), AAC untreated, and AAC D-ribose treated (high and low dose). D-ribose for injection (5% to 50% weight/volume) was administered at a dose of 25 to 500 mg/kg body weight by subcutaneous or intraperitoneal injection one to four times daily. After initiation of D-ribose treatment, animals in all groups were monitored for progressive heart failure using echocardiography. LV volumes, fractional shortening, and LV wall thicknesses were measured at 10 and 15 weeks. When LV dilation and fractional shortening were sufficiently advanced, animals were subjected to physical function testing using a motorized treadmill. Animals were allowed to recover for one week and their hearts were harvested and evaluated histologically for myocyte hypertrophy and fibrosis.

[2] = Safety, tolerability and pharmacokinetics of multiple oral doses of D-ribose solution in subjects with stable chronic heart failure; format: in vivo, human
Procedure: Although a morning oral dose of D-ribose (overnight fasting) produced significant blood plasma levels, the mid-day and evening doses produced diminished blood levels similar to that observed in healthy subjects given food immediately prior to dosing, even though D-ribose administration to subjects with stable congestive heart failure occurred over 2 hours after their previous meal.
The safety, tolerability, pharmacokinetics and pharmacodynamics of multiple oral doses of D-ribose solution was studied in 14 subjects with stable, chronic heart failure. It is well known that bolus oral D-ribose can induce a dose-dependent transient hypoglycemia that is preceeded by a transient spike in insulin levels. This can result in symptomatic hypoglycemia in subjects whose blood glucose levels fall sufficiently far. This transient hypoglycemia is the dose limiting side effect of D-ribose treatment, although it is readily overcome by drinking a glass of fruit juice. For this reason, subjects were initially administered a 10 g dose, fasted, followed 5 hours later by a 5 g dose at least 2.5 hours after the end of the previous meal. Subjects that tolerated the 10 g dose completed the remainder of the study at the 10 g dose. […] All subjects tolerated the 10 g dose, so the remainder of the study was conducted using the 10 g dose only. For the next two days, subjects were administered 10 g of D-ribose solution three times daily at 5 hour intervals beginning with a fasted morning dose around 7 a.m. Meals were served two hours after each dose such that the second and third daily doses were administered approximately 2.5 hours after completion of the previous meal. On the third day of dosing, subjects were administered a single dose of chewable tablets containing 16 g of glucose at 0, 30, and 60 minutes post-dose according to a predefined randomization schedule. The purpose of this was to determine whether glucose could attenuate any symptomatic hypoglycemia (if observed), or if it would impact the rate or extent of D-ribose absorption into the blood. Blood levels of D-ribose and insulin were determined at pre-defined time points throughout the study. Blood glucose levels were monitored continuously throughout the study. Four major outcomes emerged from this study. […] This phenomenon was not observed in normal subjects and appears unique to heart failure patients. Lastly, supplemental glucose administered between 0 and 60 minutes post-dose had no effect on D-ribose absorption into the blood.

[3] = tested on: dogs with pacing-induced heart failure; test: Canine model of heart failure induced by chronic cardiac pacing, longevity; format: in vivo
Source text: It has been shown that administration of D-ribose can improve cardiac function in animal models of heart failure. […] Animals treated with once daily, oral D-ribose at a weight equivalent dose of 10 g in a 70 kg human lived 40% longer than placebo animals. It has been hypothesized that D-ribose helps retain cardiac function by maintaining the adenylate pool in cardiomyocytes that are overworked due to underlying heart disease. Supplemental D-ribose can bypass the cell's need to synthesize D-ribose via the pentose phosphate shunt, which can be a rate limiting step to synthesis of ATP in cardiomyocytes by either the salvage or de novo pathways. It has been shown in several studies that D-ribose can enhance the rate of recovery of ATP and other constituents of the adenylate pool in the hearts of animals subjected to hypoxic stress. However, there may be additional benefits to D-ribose treatment in subjects suffering from diminished mitochondrial function in disease states such as coronary artery disease, ischemic heart disease, dilated cardiomyopathy, or other conditions leading to heart failure.
Dogs were surgically implanted with a cardiac pacing device used to induce heart failure through chronic cardiac pacing. In addition, an aortic catheter, coronary sinus catheter (for blood sampling), left ventricular catheter and pressure transducer, left ventricular piezoelectric crystals, and a transonic flow probe in the left circumflex coronary artery were implanted to measure a variety of hemodynamic parameters and to sample coronary venous blood. Subsequent to recovery from surgery, animals were paced for 3 weeks at a rate of 210 beats per minute (bpm) followed by an increased rate of 350 bpm which continued until the animals were deemed to be terminal. Hemodynamic and metabolic measurements were made on a scheduled basis throughout the pacing period. Dogs were treated with 150 mg/kg D-ribose solution orally either once daily (fasted) or three times daily. Placebo dogs were given an equivalent volume of water. D-ribose treatment started 10 days following the start of pacing and continued until the animal was deemed to be terminal. […] However, one significant difference was how long the D-ribose treated animals lived. Dogs treated once daily lived an average of 38.3 days versus 27.3 days for placebo animals (p<0.03). Furthermore, although the group of dogs treated three times daily (tid) with D-ribose consisted of fewer animals than the group of dogs treated once daily, the tid group lived on average 30.5 days, which was not statistically different than placebo animals (p>0.20). […]

[4] = tested on: patients with NYHA Class II to IV heart failure; test: Functional improvement in patients with NYHA Class II to IV heart failure taking D-ribose; format: in vivo, human; conditions: 10 to 50 g oral once daily fasted
Procedure: (§1) Oral D-ribose powder for solution is administered at a dose of 10 to 50 grams per dose, once daily, fasted (e.g., 3 hours, 4, hours, 5 hours, 6 hours, 7 hours, 8 hours, 9 hours, 10 hours, 11 hours, 12 hours, or more). D-ribose powder for solution is dissolved in 50 to 250 mL of water or clear beverage and is consumed within a 15 to 60 minute period. It is preferred that D-ribose be administered to patients that are fasted. Patients are administered D-ribose for a period of at least two weeks, but possibly for the remainder of their lives.

[5] = tested on: patients with NYHA Class II to IV heart failure; test: Remodeling effects in patients with NYHA Class II to IV heart failure taking D-ribose; format: in vivo, human; conditions: 10 to 50 g oral once daily fasted, within 3 months to one year
Procedure: as §1, with “and” for “and is”, “administered” for “administered to patients that are”, “weeks” for “weeks,”, “lives. Within a period of 3 months to one year, in at least some embodiments, patients taking D-ribose may have a lower Left Ventricular Systolic Volume Index ([…]), a lower Left Ventricular Diastolic Volume Index ([…]), higher Ejection Fractions (EF), higher dP/dtmax values, lower dP/dtmin values, and/or higher cardiac output than patients taking placebo.” for “lives.”

[6] = tested on: patients with acute decompensated heart failure; test: Dyspnea and/or edema in patients hospitalized for acutely decompensated heart failure; format: in vivo, human; conditions: 10 to 50 g oral once daily fasted
Procedure: Patients admitted to the hospital for acute decompensated heart failure may be given oral D-ribose powder for solution at a dose of 10 to 50 grams per dose, once daily, fasted (e.g., 3 hours, 4, hours, 5 hours, 6 hours, 7 hours, 8 hours, 9 hours, 10 hours, 11 hours, 12 hours, or more). D-ribose powder for solution is dissolved in 50 to 250 mL (preferably 50 mL in this case) of water or clear beverage and consumed within a 15 to 60 minute period. It is preferred that D-ribose be administered to patients that are fasted. Patients are treated until symptoms of dyspnea and fluid overload have stabilized.

[7] = healthy subjects, oral; cited from earlier work
[8] = high dose AAC D-ribose treated vs AAC control mice, p<0.05
[9] = low dose AAC D-ribose treated vs AAC controls, not statistically significant

O=C[C@H](O)[C@H](O)[C@H](O)CO [D-ribose]
heart weights ([1]; D-ribose treated animals vs untreated controls): heart weights were greater in untreated controls than D-ribose treated animals | fibrosis by differential staining (tissue sections) [1, 8]: significantly less fibrosis | myocyte diameters (tissue sections) [1, 8]: significantly smaller | left ventricular fractional shortening (echocardiography) ([1]; high dose AAC D-ribose treated vs AAC controls, p<0.01): significantly lower degree of remodeling | left ventricular dimensions (echocardiography) ([1]; high dose AAC D-ribose treated vs AAC controls, p<0.01 at systole, p=0.01 at diastole): significantly lower degree of remodeling | total wall thickness (echocardiography) ([1]; high dose AAC D-ribose treated vs AAC controls, p<0.03): significantly lower degree of remodeling | left ventricular dimensions (echocardiography) [1, 9]: numerical improvements | left ventricular fractional shortening (echocardiography) [1, 9]: numerical improvements | total wall thickness (echocardiography) ([1]; low dose AAC D-ribose treated vs AAC controls, p<0.04): statistically significant | D-ribose exposure, high dose relative to low dose group ([1]; mice, once daily subcutaneous dose): 4 fold | episodes of symptomatic hypoglycemia ([2]; 10 g bolus oral dose, even with fasted doses): no episodes of symptomatic hypoglycemia | tolerability ([2]; 10 g bolus oral dose, subjects with stable chronic heart failure): well tolerated | effect of supplemental glucose on D-ribose absorption into the blood ([2]; 16 g glucose chewable tablets at 0, 30 or 60 minutes post-dose): no effect | share of non-fasted doses with blood levels less than 15% of a 10 g fasted dose ([2]; oral 10 g mid-day and evening doses): 30% | blood levels from mid-day and evening doses relative to 10 g fasted morning dose ([2]; oral 10 g, approximately 2.5 hours after previous meal): roughly 40% | mean blood level exposure of mid-day 5 g dose, lower than 10 g fasted morning dose ([2]; oral, 5 g mid-day dose at least 2.5 hours after previous meal vs 10 g fasted morning dose): 30 fold | hemodynamics or other metabolic measures vs placebo ([3]; 150 mg/kg oral D-ribose treated dogs): no significant differences | average survival time ([3]; 150 mg/kg oral once daily (fasted), p<0.03 vs placebo (27.3 days)): 38.3 days | average survival time ([3]; 150 mg/kg oral three times daily (tid), p>0.20 vs placebo, not statistically different): 30.5 days | longer life than placebo animals ([3]; once daily oral dose equivalent to 10 g in a 70 kg human): 40% | sub-maximal (Six Minute Walk Test) or maximal (CPX) exercise capacity [4]: may exhibit improved sub-maximal exercise capacity | assessments of fatigue, dyspnea, edema, Global Clinical Status and other outcomes ([4]; within 3 months to one year, vs patients not taking D-ribose): may show improved assessments | LVESVI, LVEDVI, EF, dP/dtmax, dP/dtmin, cardiac output vs placebo [5]: may have a lower Left Ventricular Systolic Volume Index (LVESVI) | symptoms of dyspnea vs patients taking diuretics only [6]: may exhibit reduced symptoms of dyspnea within a significantly shorter timeframe | absorption relative to metabolism [7]: absorbed faster than it is metabolized | blood levels after administration immediately following meals vs after fasting [7]: greatly reduced | dose proportionality of blood levels [7]: increase more than proportionally with increasing dose
